# Earlier results as cited in patent publication US20230172920A1, “DOSING REGIMEN FOR TREATING A DISEASE MODULATED BY CSF-1R” (Novartis AG, priority 2020, published 2023).
# Read-outs that look alike come from different tables or passages of the source.
# Tests used:
# [1] = cited from earlier work
# [2] = Phase 2b/3 clinical trial; cited from earlier work
Molecule,"serum enzyme increases in clinical trials ([1]; human, in vivo)",other results
"FC(F)(F)c1ccc(CNc2ccc(Cc3c[nH]c4ncc(Cl)cc34)cn2)cn1 [PLX3397, reference compound]",–,serum enzyme increases in clinical trials ([1]; literature reports): Asymptomatic serum enzyme increases
Cc1ccc(NC(=O)c2ccc(CN3CCN(C)CC3)cc2)cc1Nc1nc(-c2cccnc2)cs1 [masitinib],–,disease progression in patients with ALS [2]: significant delay of disease progression
FPA008: monoclonal antibody against CSF-1R,Asymptomatic serum enzyme increases,–
"MCS110: monoclonal antibody against CSF-1 ligand (antibody, chains of the INN, looked up, V domains shown) VH: QVQLQESGPGLVKPSQTLSLTCTVSDYSITSDYAWNWIRQFPGKGLEWMGYISYSGSTSYNPSLKSRITISRDTSKNQFSLQLNSVTAADTAVYYCASFDYAHAMDYWGQGTTVTVSS VL: DIVLTQSPAFLSVTPGEKVTFTCQASQSIGTSIHWYQQKTDQAPKLLIKYASESISGIPSRFSGSGSGTDFTLTISSVEAEDAADYYCQQINSWPTTFGGGTKLEIK",Asymptomatic serum enzyme increases,–
